Data from patent US20070093520A1, “Method of treatment of diarrhea-predominant irritable bowel syndrome in a subject” (priority 2005, published 2007).

System: diarrhea-predominant IBS subjects
Test: 3007 Study: open-label 52-week safety study, adverse events and withdrawals
[1] = Cilansetron 2 mg/Cilansetron 2 mg

Cc1nccn1C[C@H]1CCc2c(c3cccc4c3n2CCC4)C1=O [cilansetron, (R)-(−)-4,5,6,8,9,10-hexahydro-10-[(2-methyl-1H-imidazol-1-yl)methyl]-11H-pyrido-[3,2,1-jk]-carbazol-11-one]
TEAE: Vulvovaginal Signs and Symptoms* (C/C group): 1 (<1%) n (%)
TEAE: Wheezing (C/C group): 1 (<1%) n (%)
TEAE: Abdominal Discomfort [1]: 1 (<1%) n (%)
TEAE: Abdominal Distension [1]: 9 (4%) n (%)
TEAE: Abdominal Pain Aggravated [1]: 4 (2%) n (%)
TEAE: Abdominal Pain Lower [1]: 4 (2%) n (%)
TEAE: Abdominal Pain NOS [1]: 14 (5%) n (%)
TEAE: Abdominal Pain Upper [1]: 7 (3%) n (%)
TEAE: Abdominal Rebound Tenderness [1]: 1 (<1%) n (%)
TEAE: Abdominal Tenderness [1]: 9 (4%) n (%)
TEAE: Abnormal Reflexes [1]: 1 (<1%) n (%)
TEAE: Alanine Aminotransferase Increased [1]: 8 (3%) n (%)
TEAE: Anal and Rectal Disorders NEC [1]: 0 n (%)
TEAE: Anal and Rectal Pains [1]: 0 n (%)
TEAE: Anal and Rectal Signs and Symptoms [1]: 1 (<1%) n (%)
TEAE: Animal Bite [1]: 0 n (%)
TEAE: Appendicitis [1]: 1 (<1%) n (%)
TEAE: Arthralgia [1]: 10 (4%) n (%)
TEAE: Arthritis NOS [1]: 3 (1%) n (%)
TEAE: Arthritis NOS Aggravated [1]: 1 (<1%) n (%)
TEAE: Arthropathies NEC [1]: 5 (2%) n (%)
TEAE: Arthropod Bite [1]: 1 (<1%) n (%)
TEAE: Arthropod Sting [1]: 0 n (%)
TEAE: Aspartate Aminotransferase Increased [1]: 4 (2%) n (%)
TEAE: Back Injury NOS [1]: 3 (1%) n (%)
TEAE: Back Pain [1]: 12 (5%) n (%)
TEAE: Back Pain Aggravated [1]: 2 (<1%) n (%)
TEAE: Bacteria Identification and Serology (Excl Mycobacteria) [1]: 1 (<1%) n (%)
TEAE: Bilirubin Urine [1]: 1 (<1%) n (%)
TEAE: Bladder Infection NOS [1]: 0 n (%)
TEAE: Blood Alkaline Phosphatase NOS Increased [1]: 2 (<1%) n (%)
TEAE: Blood Bilirubin Increased [1]: 2 (<1%) n (%)
TEAE: Blood Cholesterol Increased [1]: 11 (4%) n (%)
TEAE: Blood Creatine Phosphokinase Increased [1]: 19 (7%) n (%)
TEAE: Blood Creatine Phosphokinase Mb Increased [1]: 1 (<1%) n (%)
TEAE: Blood Creatinine Increased [1]: 1 (<1%) n (%)
TEAE: Blood Glucose Increased [1]: 2 (<1%) n (%)
TEAE: Blood Potassium Increased [1]: 1 (<1%) n (%)
TEAE: Blood Pressure Increased [1]: 3 (1%) n (%)
TEAE: Blood Sodium Increased [1]: 1 (<1%) n (%)
TEAE: Blood Triglycerides Increased [1]: 6 (2%) n (%)
TEAE: Blood Uric Acid Increased [1]: 2 (<1%) n (%)
TEAE: Blood Urine Present [1]: 6 (2%) n (%)
TEAE: Blood in Stool [1]: 4 (2%) n (%)
TEAE: Bone Density Decreased [1]: 0 n (%)
TEAE: Bone Disorder NOS [1]: 1 (<1%) n (%)
TEAE: Bone Disorders NEC [1]: 1 (<1%) n (%)
TEAE: Bone Injury [1]: 1 (<1%) n (%)
TEAE: Bone Spur [1]: 0 n (%)
TEAE: Bronchitis Acute NOS [1]: 2 (<1%) n (%)
TEAE: Bronchitis NOS [1]: 18 (7%) n (%)
TEAE: Bronchopneumonia NOS [1]: 0 n (%)
TEAE: Bunion [1]: 2 (<1%) n (%)
TEAE: Bursal Disorders [1]: 3 (1%) n (%)
TEAE: Bursitis [1]: 1 (<1%) n (%)
TEAE: Candida Infections [1]: 2 (<1%) n (%)
TEAE: Candidal Infection NOS [1]: 1 (<1%) n (%)
TEAE: Carbohydrate Tolerance Analyses (Incl Diabetes) [1]: 2 (<1%) n (%)
TEAE: Cardiac Auscultatory Investigations [1]: 1 (<1%) n (%)
TEAE: Cardiac Murmur NOS [1]: 1 (<1%) n (%)
TEAE: Carotid Bruit [1]: 0 n (%)
TEAE: Carpal Tunnel Syndrome [1]: 2 (<1%) n (%)
TEAE: Cartilage Disorder NOS [1]: 1 (<1%) n (%)
TEAE: Cartilage Disorders [1]: 1 (<1%) n (%)
TEAE: Cellulitis [1]: 0 n (%)
TEAE: Cervical Spasm [1]: 1 (<1%) n (%)
TEAE: Change in Bowel Habit NOS [1]: 0 n (%)
TEAE: Chapped Lips [1]: 0 n (%)
TEAE: Chest Wall Pain [1]: 0 n (%)
TEAE: Cholesterol Analyses [1]: 11 (4%) n (%)
TEAE: Colitis (Excl Infective) [1]: 0 n (%)
TEAE: Colitis Ischaemic [1]: 0 n (%)
TEAE: Colonic Polyp [1]: 1 (<1%) n (%)
TEAE: Connective Tissue Disorders (Excl Le) [1]: 2 (<1%) n (%)
TEAE: Constipation [1]: 66 (26%) n (%)
TEAE: Cystitis NOS [1]: 1 (<1%) n (%)
TEAE: Dental Disorders NEC [1]: 1 (<1%) n (%)
TEAE: Dental Infections - Pathogen Class Unspecified [1]: 9 (4%) n (%)
TEAE: Dental Pain and Sensation Disorders [1]: 2 (<1%) n (%)
TEAE: Diaphragmatic Hernias [1]: 2 (<1%) n (%)
TEAE: Diarrhoea (Excl Infective) [1]: 24 (9%) n (%)
TEAE: Diarrhoea Aggravated [1]: 3 (1%) n (%)
TEAE: Diarrhoea Haemorrhagic [1]: 0 n (%)
TEAE: Diarrhoea NOS [1]: 22 (9%) n (%)
TEAE: Disturbances in Consciousness NEC [1]: 3 (1%) n (%)
TEAE: Diverticulitis NOS [1]: 1 (<1%) n (%)
TEAE: Diverticulum Inflammations [1]: 1 (<1%) n (%)
TEAE: Dizziness [1]: 4 (2%) n (%)
TEAE: Dry Mouth [1]: 1 (<1%) n (%)
TEAE: Dysarthria [1]: 0 n (%)
TEAE: Dyskinesias and Movement Disorders NEC [1]: 0 n (%)
TEAE: Dyspepsia [1]: 6 (2%) n (%)
TEAE: Dyspepsia Aggravated [1]: 2 (<1%) n (%)
TEAE: Dyspeptic Signs and Symptoms [1]: 10 (4%) n (%)
TEAE: ECG Investigations [1]: 1 (<1%) n (%)
TEAE: Ear Infection NOS [1]: 2 (<1%) n (%)
TEAE: Ear Infections [1]: 2 (<1%) n (%)
TEAE: Electrocardiogram Qrs Complex Abnormal [1]: 1 (<1%) n (%)
TEAE: Electrocardiogram T Wave Inversion [1]: 0 n (%)
TEAE: Enteritis [1]: 0 n (%)
TEAE: Epigastric Discomfort [1]: 0 n (%)
TEAE: Eructation [1]: 2 (<1%) n (%)
TEAE: Eye Injuries NEC [1]: 1 (<1%) n (%)
TEAE: Faecal Abnormality NOS [1]: 1 (<1%) n (%)
TEAE: Faecal Impaction [1]: 0 n (%)
TEAE: Faecal Incontinence [1]: 1 (<1%) n (%)
TEAE: Faecal Occult Blood Positive [1]: 23 (9%) n (%)
TEAE: Faeces Abnormal [1]: 2 (<1%) n (%)
TEAE: Faeces Hard [1]: 1 (<1%) n (%)
TEAE: Fibromyalgia [1]: 1 (<1%) n (%)
TEAE: Flatulence [1]: 16 (6%) n (%)
TEAE: Flatulence, Bloating and Distension [1]: 23 (9%) n (%)
TEAE: Food Poisoning NOS [1]: 1 (<1%) n (%)
TEAE: Foot Fracture [1]: 1 (<1%) n (%)
TEAE: Fractures and Dislocations NEC [1]: 1 (<1%) n (%)
TEAE: Frequent Bowel Movements [1]: 1 (<1%) n (%)
TEAE: Fungal Infection NOS [1]: 2 (<1%) n (%)
TEAE: Fungal Infections NEC [1]: 4 (2%) n (%)
TEAE: Gamma-Glutamyltransferase Increased [1]: 5 (2%) n (%)
TEAE: Gastric Irritation [1]: 1 (<1%) n (%)
TEAE: Gastritis (Excl Infective) [1]: 3 (1%) n (%)
TEAE: Gastritis NOS [1]: 3 (1%) n (%)
TEAE: Gastroenteritis NOS [1]: 4 (2%) n (%)
TEAE: Gastroenteritis Viral NOS [1]: 5 (2%) n (%)
TEAE: Gastrointestinal Atonic and Hypomotility Disorders NEC [1]: 70 (27%) n (%)
TEAE: Gastrointestinal Disorders [1]: 134 (52%) n (%)
TEAE: Gastrointestinal Disorders NEC [1]: 1 (<1%) n (%)
TEAE: Gastrointestinal Dyskinetic Disorders [1]: 2 (<1%) n (%)
TEAE: Gastrointestinal Histopathology Procedures [1]: 25 (10%) n (%)
TEAE: Gastrointestinal Infections - Pathogen Class Unspecified [1]: 4 (2%) n (%)
TEAE: Gastrointestinal Inflammatory Disorders NEC [1]: 1 (<1%) n (%)
TEAE: Gastrointestinal Motility Disorder NOS [1]: 2 (<1%) n (%)
TEAE: Gastrointestinal Mucosal Dystrophies and Secretion Disorders [1]: 1 (<1%) n (%)
TEAE: Gastrointestinal Signs and Symptoms NEC [1]: 2 (<1%) n (%)
TEAE: Gastrointestinal Spastic and Hypermotility Disorders [1]: 5 (2%) n (%)
TEAE: Gastrointestinal and Abdominal Pains (Excl Oral and Throat) [1]: 36 (14%) n (%)
TEAE: Gingival Abscess [1]: 2 (<1%) n (%)
TEAE: Gingival Atrophy [1]: 1 (<1%) n (%)
TEAE: Gingival Disorders NEC [1]: 1 (<1%) n (%)
TEAE: Gingival Pain [1]: 1 (<1%) n (%)
TEAE: Gingival Pains [1]: 1 (<1%) n (%)
TEAE: Gingivitis [1]: 0 n (%)
TEAE: Gingivitis Infection NOS [1]: 1 (<1%) n (%)
TEAE: Glucose Urine Present [1]: 1 (<1%) n (%)
TEAE: Groin Pain [1]: 1 (<1%) n (%)
TEAE: Haematocrit Decreased [1]: 1 (<1%) n (%)
TEAE: Haemoglobin Decreased [1]: 1 (<1%) n (%)
TEAE: Haemorrhoidal Haemorrhage [1]: 2 (<1%) n (%)
TEAE: Haemorrhoids [1]: 4 (2%) n (%)
TEAE: Haemorrhoids Aggravated [1]: 0 n (%)
TEAE: Haemorrhoids and Gastrointestinal Varices (Excl Oesophageal) [1]: 6 (2%) n (%)
TEAE: Halitosis [1]: 1 (<1%) n (%)
TEAE: Headache NOS [1]: 19 (7%) n (%)
TEAE: Headache NOS Aggravated [1]: 3 (1%) n (%)
TEAE: Headaches NEC [1]: 25 (10%) n (%)
TEAE: Heart Rate Increased [1]: 1 (<1%) n (%)
TEAE: Heart Rate and Pulse Investigations [1]: 1 (<1%) n (%)
TEAE: Heat Exhaustion [1]: 1 (<1%) n (%)
TEAE: Heat Injuries (Excl Thermal Burns) [1]: 1 (<1%) n (%)
TEAE: Helicobacter Pylori Antibody Positive [1]: 1 (<1%) n (%)
TEAE: Herpes Simplex [1]: 2 (<1%) n (%)
TEAE: Herpes Simplex Aggravated [1]: 1 (<1%) n (%)
TEAE: Herpes Viral Infections [1]: 3 (1%) n (%)
TEAE: Herpes Zoster [1]: 0 n (%)
TEAE: Hiatus Hernia [1]: 2 (<1%) n (%)
TEAE: Hyperreflexia [1]: 1 (<1%) n (%)
TEAE: Hypoaesthesia [1]: 1 (<1%) n (%)
TEAE: Infected Varicose Vein [1]: 1 (<1%) n (%)
TEAE: Infections NEC [1]: 3 (1%) n (%)
